Results on 1 substance are retold here after US20080014256A1 (priority 2005, published 2008).

The subject of data set [1] is cell monolayer. Particulars: pH 6.
The conditions of data set [2]: cynomolgus monkey, in vivo, 15 mg/kg.
Description: (§1) Four male cynomolgus monkeys were used in the study. […] The dosing volume was 10 mL/kg. Blood samples (2 mL per sample) were obtained prior to dosing (0 hr) and at 0.5, 1, 2, 4, 6, 8, 12, 24, 32 and 48 hr after the oral dose. […] Blood samples (2 mL) were obtained pre-dose (0 hr) and at 5 mm., 0.5, 1, 2, 4, 6, 8, 12, 24, 32 and 48 hr post-dose. Blood samples were collected using a stainless steel needle and vacutainer tube containing sodium heparin as the anticoagulant. Blood samples were placed on ice after collection and centrifuged at approximately 4° C. Plasma samples was separated, frozen and stored at approximately −70° C. prior to analysis.
(§2) Pharmacokinetic parameters were calculated using the pharmacokinetics analysis program WinNonlin, version 2.1 (Scientific Consulting Inc.) from the individual animal concentration vs. time profiles. […] For the purpose of this analysis, no attempt was made to back extrapolate the concentration immediately after the IV bolus dose, rather the concentration at 0 hr (C0, immediately after dosing) was assumed to be equal to the first measured concentration (at 5 minutes, C5min). […] The terminal half-life (t1/2) was determined by 0.693/λ, where λ is the terminal rate constant and is determined by a log-linear fitting of the terminal portion of the concentration-time curve. AUC0-4 was calculated by AUC0-t+Ct/λ, where AUC0-t was the AUC from time 0 to t, the last quantifiable time point and Ct was the last quantifiable concentration. The area under the plasma concentration-time curve from time 0 to t (AUC0-t) was calculated using the linear trapezoidal method. Systemic clearance (CLT) after the iv dose was calculated using the formula of Dose/AUC0-4. The volume of distribution at steady-state (Vdss) was calculated using the formula of MRTiv×CLT, where MRTiv is the mean residence time after iv dosing and equals AUMC0-4/AUC0-4. For the oral dose, Cmax and tmax values were obtained by inspection of the concentration vs. time curves.
A short description of data set [3]: Pharmacokinetics of tigecycline after single oral (gavage) and intravenous dose in 0.9% saline.
Description: as §1, §2

Where “and” joins values, the source holds several entries; their conditions need not be identical. Equal values may be shown once. Read-outs that look alike come from different tables or passages of the source. Marks after values point to notes of the source that are not given here.

Take Tigecycline: the cell monolayer permeability in data set [1] came to 0.04 ×10⁻⁶ cm/s. Moreover, the “AUC0-t or 0-∞” value worked out at 18267 in data set [2] and 163 in data set [2] (po). The AUC0-4 in data set [3] (5 mg/kg iv, animals 1-4 and Mean) is 20178 ng·h/mL. For the same substance, the Cmax in data set [3] (15 mg/kg oral (gavage), 0.9% saline, animals 1-4 and Mean) is 131 ng/mL and 191 ng/mL and 178 ng/mL. For the same substance, the AUC0-t in data set [3] (15 mg/kg oral (gavage), t = 2 hr (animals 1, 2, 4) or t = 1 hr (animal 3), individual and Mean) is recorded as 105^c ng · hr/mL.

As a reminder, the Cmax is the maximum level reached in the sampled fluid or tissue.
